Laboratory results from ChEMBL document CHEMBL5344425, “Discovery of 5-(Pyrimidin-2-ylamino)-1H-indole-2-carboxamide Derivatives as Nur77 Modulators with Selective and Potent Activity Against Triple-Negative Breast Cancer” (J Med Chem, 2023).
Active and inactive are the calls of the source. The rule behind the calls is not given here.

Columns and labels:
MDA-MB-231 [1] = test: Induction of apoptosis in human MDA-MB-231 cells assessed as proportion of late apoptotic cells at 1.25 uM measured after 5 hrs by AnnexinV-FITC/PI staining based flow cytometry (reference value: 2.55%); assay type: functional
MDA-MB-231 [2] = test: Induction of apoptosis in human MDA-MB-231 cells assessed as increase in Tunel-488 […] at 1 uM measured after 6 hrs by confocal microscopy; assay type: functional, cell-based
[3] = Toxicity in Zebra fish AB embryo assessed as mortality rate at 1.25 to 5 uM measured after 24 to 72 hrs; parameters: species or system Danio rerio; conditions: zebrafish, dose lower 1.25 µM, time lower 24 hrs, dose upper 5 µM, time upper 72 hrs
MDA-MB-231 [4] = test: Induction of apoptosis in human MDA-MB-231 cells assessed as proportion of late apoptotic cells at 0.32 uM measured after 5 hrs by AnnexinV-FITC/PI staining based flow cytometry (reference value: 2.55%); assay type: functional
MDA-MB-231 [5] = test: Antiproliferative activity against human MDA-MB-231 cells assessed as inhibition of cell growth measured after 24 hrs by MTT assay; assay type: functional, cell-based; conditions: MDA-MB-231, 24 h
MDA-MB-231 [6] = test: Induction of apoptosis in human MDA-MB-231 cells assessed as PARP cleavage at 2.5 uM pretreated with protein synthesis inhibitor, cycloheximide for 4 hrs followed by compound addition and measured after 6 hrs by western blot analysis; assay type: functional, cell-based
MDA-MB-231 [7] = test: Induction of apoptosis in human MDA-MB-231 cells assessed as PARP cleavage at 2 uM by western blot analysis; assay type: functional, cell-based; conditions: time 1-5 hrs, TDE = time-dependent effect
MDA-MB-231 [8] = test: Induction of apoptosis in human MDA-MB-231 cells assessed as increase in cleaved caspase-3 expression at 1 uM measured after 6 hrs by confocal microscopy; assay type: functional, cell-based
HT-29 = test: Antiproliferative activity against human HT-29 cells assessed as inhibition of cell growth measured after 24 hrs by MTT assay; assay type: functional, cell-based; conditions: HT-29, 24 h
MDA-MB-231 [9] = test: Induction of apoptosis in human MDA-MB-231 cells assessed as proportion of late apoptotic cells at 2.5 uM measured after 5 hrs by AnnexinV-FITC/PI staining based flow cytometry (reference value: 2.55%); assay type: functional
MDA-MB-231 [10] = test: Induction of apoptosis in human MDA-MB-231 cells assessed as PARP cleavage measured after 6 hrs by western blot analysis; assay type: functional, cell-based; conditions: dose 0.5-5 µM
[11] = target: T1, Nuclear receptor subfamily 4immunitygroup A member 1 (Homo sapiens, UniProt P22736); test: Binding affinity to His-tagged Nur77 ligand binding domain (unknown origin) at 10 uM by surface plasmon resonance assay; conditions: filed as modulator
T1 sequence (P22736 whole entry, the tested form may be a part): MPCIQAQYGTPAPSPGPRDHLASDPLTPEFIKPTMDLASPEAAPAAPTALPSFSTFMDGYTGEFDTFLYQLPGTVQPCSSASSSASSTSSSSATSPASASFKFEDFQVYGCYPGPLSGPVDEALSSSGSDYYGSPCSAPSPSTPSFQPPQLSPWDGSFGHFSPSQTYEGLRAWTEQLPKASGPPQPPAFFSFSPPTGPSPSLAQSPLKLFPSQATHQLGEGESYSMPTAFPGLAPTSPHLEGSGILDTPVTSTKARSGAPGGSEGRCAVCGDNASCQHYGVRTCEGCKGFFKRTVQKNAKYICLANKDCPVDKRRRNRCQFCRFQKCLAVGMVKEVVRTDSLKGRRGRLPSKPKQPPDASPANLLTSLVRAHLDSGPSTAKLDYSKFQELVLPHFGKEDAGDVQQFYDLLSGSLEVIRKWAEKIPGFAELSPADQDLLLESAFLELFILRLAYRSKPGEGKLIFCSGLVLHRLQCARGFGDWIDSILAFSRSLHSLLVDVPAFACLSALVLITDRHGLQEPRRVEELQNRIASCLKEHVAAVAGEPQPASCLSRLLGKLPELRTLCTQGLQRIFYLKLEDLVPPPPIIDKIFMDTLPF

MDA-MB-231 [12] = test: Induction of apoptosis in human MDA-MB-231 cells transfected with Nur77 siRNA assessed as early apoptotic cells at 2 uM measured after 6 hrs by AnnexinV-FITC/PI staining based flow cytometry (reference value: 1.88%); assay type: functional
MDA-MB-231 [13] = test: Induction of apoptosis in human MDA-MB-231 cells transfected with ctr siRNA assessed as loss of mitochondrial membrane potential at 1 uM measured after 6 hrs by JC-1 staining based flow cytometry (reference value: 13.93%); assay type: functional
HeLa = test: Antiproliferative activity against human HeLa cells assessed as inhibition of cell growth measured after 24 hrs by MTT assay; assay type: functional, cell-based
MDA-MB-231 [14] = test: Induction of apoptosis in human MDA-MB-231 cells transfected with ctr siRNA assessed as late apoptotic cells at 2 uM measured after 6 hrs by AnnexinV-FITC/PI staining based flow cytometry (reference value: 3.97%); assay type: functional
MDA-MB-231 [15] = test: Induction of apoptosis in human MDA-MB-231 cells assessed as PARP cleavage at 2.5 uM pretreated with PI3K and autophagy inhibitor, Wortmannin for 4 hrs followed by compound addition and measured after 6 hrs by western blot analysis; assay type: functional, cell-based
MDA-MB-231 [16] = test: Induction of apoptosis in human MDA-MB-231 cells transfected with Nur77 siRNA assessed as late apoptotic cells at 2 uM measured after 6 hrs by AnnexinV-FITC/PI staining based flow cytometry (reference value: 3.97%); assay type: functional
[17] = target: T1, Nuclear receptor subfamily 4immunitygroup A member 1; test: Binding affinity to wild type Nur77 ligand binding domain (unknown origin) assessed as decrease in fluorescence intensity incubated for 30 secs by fluorescence spectrophotometric analysis
[18] = Selectivity index, ratio of IC50 for cytotoxicity against human MCF-10A cells to IC50 for antiproliferative activity against human MDA-MB-231 cells; assay type: toxicity, cell-based; conditions: MCF-10A cells versus MDA-MB-231 cells, read-out: Ratio IC50
[19] = Selectivity index, ratio of IC50 for cytotoxicity against human MCF-10A cells to IC50 for antiproliferative activity against human T47D cells; assay type: toxicity, cell-based; conditions: MCF-10A cells versus T47D cells, read-out: Ratio IC50
[20] = Cytotoxicity against human MCF-10A cells assessed as inhibition of cell growth measured after 24 hrs by MTT assay; assay type: toxicity, cell-based
T47D = test: Antiproliferative activity against human T47D cells assessed as inhibition of cell growth measured after 24 hrs by MTT assay; assay type: functional, cell-based
MDA-MB-231 [21] = test: Antitumor activity against human MDA-MB-231 cells xenografted in BALB/c mouse assessed as increase in cleaved caspase-3 expression in tumor at 10 mg/kg, ip qd for 16 days by immunohistochemical staining based analysis; assay type: functional, organism-based; conditions: time 16.0 day
[22] = Toxicity in Zebra fish AB embryo assessed as mortality rate at 1.25 uM measured after 24 to 72 hrs; parameters: species or system Danio rerio; conditions: zebrafish, 1.25 µM, time 24-72 hrs
MDA-MB-231 [23] = test: Induction of apoptosis in human MDA-MB-231 cells assessed as proportion of early apoptotic cells at 0.32 uM measured after 5 hrs by AnnexinV-FITC/PI staining based flow cytometry (reference value: 3.35%); assay type: functional

SMILES: CCN(CC)CCCNC(=O)c1cc2cc(Nc3nccc(-c4sc(NC)nc4C)n3)ccc2[nH]1
- Activity (MDA-MB-231 [1]): 4.06%
- Activity (MDA-MB-231 [2]): Active
- Activity [3]: Non-Toxic
- Activity (MDA-MB-231 [4]): 5.29%
- IC50 (MDA-MB-231 [5]): 400 nM
- Activity (MDA-MB-231 [6]): Active
- Activity (MDA-MB-231 [7]): Tde
- Activity (MDA-MB-231 [8]): Active
- IC50 (HT-29): 47200 nM
- Activity (MDA-MB-231 [9]): 16.69%
- Activity (MDA-MB-231 [10]): Dose-Dependent Effect
- Activity [11]: Active
- Activity (MDA-MB-231 [12]): 2.5%
- Activity (MDA-MB-231 [13]): 35.26%
- IC50 (HeLa): 1990 nM
- Activity (MDA-MB-231 [14]): 13.04%
- Activity (MDA-MB-231 [15]): Active
- Activity (MDA-MB-231 [16]): 2.36%
- Kd [17]: 154 nM
- selectivity ratio [18]: 120
- selectivity ratio [19]: 45.7
- IC50 at 24 h [20]: 48000 nM
- IC50 (T47D): 1050 nM
- Activity (MDA-MB-231 [21]): Active
- Activity [22]: Non-Toxic
- Activity (MDA-MB-231 [23]): 9.81%
